Each structure is given as a SMILES string.

The subject of the experiment is NQO1 specific enzyme activity in BEAS-2B cells (marker for NRF2 activation). The experiment can be described thus: BEAS-2B NQO1 MTT Assay. Type of experiment: cell-based. To be noted: Homo sapiens, BEAS-2B, 48 h, NQO1 specific activity induction, 48 hours with compound. The text has this:
NAD(P)H:quinone oxidoreductase 1 (NQO1), also called DT diaphorase, is a homodimeric FAD-containing enzyme that catalyzes obligatory NAD(P)H-dependent two-electron reductions of quinones and protects cells against the toxic and neoplastic effects of free radicals and reactive oxygen species arising from one-electron reductions. The transcription of NQO1 is finely regulated by NRF2, and thus NQO1 activity is a good marker for NRF2 activation. On day one, frozen BEAS-2B cells (ATCC) were thawed in a water bath, counted, and re-suspended at a concentration of 250,000 cells/mL. Fifty microliters of cells were plated in 384 well black clear-bottomed plates. Plates were incubated at 37° C., 5% CO2 overnight. On day two, plates were centrifuged and 50 nL of compound or controls were added to the cells. Plates were then incubated at 37° C., 5% CO2 for 48 hours. On day four, medium was aspirated from the plate and crude cell lysates were made by adding 13 uL of 1× Cell Signaling Technologies lysis buffer with 1 Complete, Mini, EDTA-free Protease Inhibitor Tablet (Roche) for each 10 mL of lysis buffer. After lysis plates were incubated for 20 minutes at room temperature. Two microliters of lysate were removed for use in Cell Titer Glo assay (Promega) and MTT cocktail was prepared (Prochaska et. al. 1998) for measurement of NQO1 activity. Fifty microliters of MTT cocktail is added to each well, plate is centrifuged, and analyzed on an Envision plate reader (Perkin Elmer) using Absorbance 570 nm label for 30 minutes. Product formation was measured kinetically and the pEC50 of NQO1 specific activity induction was calculated by plotting the change in absorbance (Delta OD/min) versus the log of compound concentration followed by 3-parameter fitting.
pEC50 is the negative log of the EC50.
EC50s<1 nM (+++++), EC50s 1 nM-10 nM (++++), EC50s 10 nM-100 nM (+++), EC50s 100 nM-1 uM (++), EC50s 1 uM-10 uM (+), EC50s>10 uM (−), or were not determined (ND).
By EC50 is commonly meant the concentration giving half of the maximal effect. As to `CCn1nnc2c(C)c([C@H](c3cc(CN4C[C@@H](C)Cc5ccccc5S4(=O)=O)c(C)s3)C(C)(C)C(N)=O)ccc21` [Example 39, (S)-3-(1-Ethyl-4-methyl-1H-benzo[d][1,2,3]triazol-5-yl)-2,2-dimethyl-3-(5-methyl-4-(((S)-4-methyl-1,1-dioxido-4,5-dihydrobenzo[f][1,2]thiazepin-2(3H)-yl)methyl)thiophen-2-yl)propanamide], the EC50 lay in the range of 10 to 100 nM.

Consider `CC[C@@H]1CN(Cc2cc([C@H](c3ccc4c(nnn4CC)c3F)C(C)(C)C(=O)O)sc2Cl)S(=O)(=O)c2ccccc2O1` [Example 40, (S)-3-(5-Chloro-4-(((R)-4-ethyl-1,1-dioxido-3,4-dihydro-2H-benzo[b][1,4,5]oxathiazepin-2-yl)methyl)thiophen-2-yl)-3-(1-ethyl-4-fluoro-1H-benzo[d][1,2,3]triazol-5-yl)-2,2-dimethylpropanoic Acid], for which the EC50 is 10 to 100 nM. Then `CC[C@H]1Cc2ccccc2S(=O)(=O)N(Cc2nc([C@@H](c3ccc4c(nnn4CC)c3C)C(C)(C)C(=O)O)sc2C)C1` [Example 41, (S)-3-(4-(((S)-4-Ethyl-1,1-dioxido-4,5-dihydrobenzo[f][1,2]thiazepin-2(3H)-yl)methyl)-5-methylthiazol-2-yl)-3-(1-ethyl-4-methyl-1H-benzo[d][1,2,3]triazol-5-yl)-2,2-dimethylpropanoic Acid], with less than 1 nM; and `CC[C@H]1Cc2ccccc2S(=O)(=O)N(Cc2nc([C@@H](c3ccc4c(nnn4CC)c3C)C(C)(C)C(=O)Nc3cccnc3)sc2C)C1` [Example 42, (S)-3-(4-(((S)-4-Ethyl-1,1-dioxido-4,5-dihydrobenzo[f][1,2]thiazepin-2(3H)-yl)methyl)-5-methylthiazol-2-yl)-3-(1-ethyl-4-methyl-1H-benzo[d][1,2,3]triazol-5-yl)-2,2-dimethyl-N-(pyridin-3-yl)propanamide], with 10 to 100 nM. The result for `CCn1nnc2c(F)c([C@@H](c3cc(CN4C[C@@H](C)Cc5ccc(C(F)(F)F)cc5S4(=O)=O)c(Cl)s3)C(C)(C)C(=O)O)ccc21` [Example 43, (S)-3-(5-Chloro-4-(((S)-4-methyl-1,1-dioxido-8-(trifluoromethyl)-4,5-dihydrobenzo[f][1,2]thiazepin-2(3H)-yl)methyl)thiophen-2-yl)-3-(1-ethyl-4-fluoro-1H-benzo[d][1,2,3]triazol-5-yl)-2,2-dimethylpropanoic Acid] reads 10 to 100 nM.

Turning to `CCn1nnc2c(C)c([C@H](c3nc(CN4C[C@@H](C)Cc5cc(C(F)(F)F)ccc5S4(=O)=O)c(C)s3)C(C)(C)C(=O)O)ccc21` [Example 44, (S)-3-(1-Ethyl-4-methyl-1H-benzo[d][1,2,3]triazol-5-yl)-2,2-dimethyl-3-(5-methyl-4-(((S)-4-methyl-1,1-dioxido-7-(trifluoromethyl)-4,5-dihydrobenzo[f][1,2]thiazepin-2(3H)-yl)methyl)thiazol-2-yl)propanoic Acid], the EC50 is less than 1 nM. `CCn1nnc2c(C)c([C@H](c3nc(CN4C[C@@H](C)Cc5cc(C(F)(F)F)ccc5S4(=O)=O)c(C)s3)C(C)(C)C(=O)Nc3cccnc3)ccc21` [Example 45, (S)-3-(1-Ethyl-4-methyl-1H-benzo[d][1,2,3]triazol-5-yl)-2,2-dimethyl-3-(5-methyl-4-(((S)-4-methyl-1,1-dioxido-7-(trifluoromethyl)-4,5-dihydrobenzo[f][1,2]thiazepin-2(3H)-yl)methyl)thiazol-2-yl)-N-(pyridin-3-yl)propanamide]: the concentration giving a half-maximal response (EC50) was in the range of 10 to 100 nM. The result for `CC[C@@H]1CN(Cc2cc([C@H](CC(=O)O)c3ccc4c(nnn4CC)c3C)sc2C)S(=O)(=O)c2cccnc2O1` [Example 46, (R)-3-(4-(((R)-4-Ethyl-1,1-dioxido-3,4-dihydro-2H-pyrido[2,3-b][1,4,5]oxathiazepin-2-yl)methyl)-5-methylthiophen-2-yl)-3-(1-ethyl-4-methyl-1H-benzo[d][1,2,3]triazol-5-yl)propanoic Acid] reads 10 to 100 nM; that for `CC[C@@H]1CN(Cc2cc([C@H](CC(=O)O)c3ccc4c(nnn4CC)c3C)sc2C)S(=O)(=O)c2cnccc2O1` [Example 47, (R)-3-(4-(((R)-4-Ethyl-1,1-dioxido-3,4-dihydro-2H-pyrido[4,3-b][1,4,5]oxathiazepin-2-yl)methyl)-5-methylthiophen-2-yl)-3-(1-ethyl-4-methyl-1H-benzo[d][1,2,3]triazol-5-yl)propanoic Acid], 10 to 100 nM; that for `CC[C@H]1Cc2ccc(C(F)(F)F)cc2S(=O)(=O)N(Cc2nc([C@@H](c3ccc4c(nnn4CC)c3C)C(C)(C)C(=O)Nc3cccnc3)sc2C)C1` [Example 48, (S)-3-(4-(((S)-4-Ethyl-1,1-dioxido-8-(trifluoromethyl)-4,5-dihydrobenzo[f][1,2]thiazepin-2(3H)-yl)methyl)-5-methylthiazol-2-yl)-3-(1-ethyl-4-methyl-1H-benzo[d][1,2,3]triazol-5-yl)-2,2-dimethyl-N-(pyridin-3-yl)propanamide], 10 to 100 nM. Take `CC[C@H]1Cc2ccc(C(F)(F)F)cc2S(=O)(=O)N(Cc2nc([C@@H](c3ccc4c(nnn4CC)c3C)C(C)(C)C(=O)O)sc2C)C1` [Example 49, (S)-3-(4-(((S)-4-Ethyl-1,1-dioxido-8-(trifluoromethyl)-4,5-dihydrobenzo[f][1,2]thiazepin-2(3H)-yl)methyl)-5-methylthiazol-2-yl)-3-(1-ethyl-4-methyl-1H-benzo[d][1,2,3]triazol-5-yl)-2,2-dimethylpropanoic Acid]: the EC50 is less than 1 nM.

For the compound `CCn1nnc2c(C)c([C@H](c3cc(CN4C[C@@H](C)Cc5ccc(C(F)(F)F)cc5S4(=O)=O)n(C)n3)C(C)(C)C(=O)O)ccc21` [Example 50, (S)-3-(1-Ethyl-4-methyl-1H-benzo[d][1,2,3]triazol-5-yl)-2,2-dimethyl-3-(1-methyl-5-(((S)-4-methyl-1,1-dioxido-8-(trifluoromethyl)-4,5-dihydrobenzo[f][1,2]thiazepin-2(3H)-yl)methyl)-1H-pyrazol-3-yl)propanoic Acid], the EC50 fell in the range of 1 to 10 nM. Then `CC[C@@H]1CN(Cc2cc([C@@H](c3ccc4c(nnn4CC)c3C)C(C)(C)C(=O)Nc3cccnc3)sc2C)S(=O)(=O)c2ccccc2O1` [Example 51, (S)-3-(4-(((R)-4-Ethyl-1,1-dioxido-3,4-dihydro-2H-benzo[b][1,4,5]oxathiazepin-2-yl)methyl)-5-methylthiophen-2-yl)-3-(1-ethyl-4-methyl-1H-benzo[d][1,2,3]triazol-5-yl)-2,2-dimethyl-N-(pyridin-3-yl)propanamide], with 1 to 10 nM; and `CCn1nnc2c(C)c([C@H](c3cc(CN4C[C@@H](C)Cc5ccccc5S4(=O)=O)c(C)s3)C(C)(C)C(=O)Nc3cccnc3)ccc21` [Example 52, (S)-3-(1-Ethyl-4-methyl-1H-benzo[d][1,2,3]triazol-5-yl)-2,2-dimethyl-3-(5-methyl-4-(((S)-4-methyl-1,1-dioxido-4,5-dihydrobenzo[f][1,2]thiazepin-2(3H)-yl)methyl)thiophen-2-yl)-N-(pyridin-3-yl)propanamide], with 1 to 10 nM; and `CC[C@@H]1CN(Cc2cc([C@@H](c3ccc4c(nnn4CC)c3F)C(C)(C)C(=O)O)sc2Cl)S(=O)(=O)c2ccccc2O1` [Example 53, (R)-3-(5-Chloro-4-(((R)-4-ethyl-1,1-dioxido-3,4-dihydro-2H-benzo[b][1,4,5]oxathiazepin-2-yl)methyl)thiophen-2-yl)-3-(1-ethyl-4-fluoro-1H-benzo[d][1,2,3]triazol-5-yl)-2,2-dimethylpropanoic Acid], with less than 1 nM. For the compound `CC[C@@H]1CN(Cc2cc([C@@H](c3ccc4c(nnn4CC)c3C)C(C)(C)C(=O)O)sc2Cl)S(=O)(=O)c2cccnc2O1` [Example 54, (S)-3-(5-Chloro-4-(((R)-4-ethyl-1,1-dioxido-3,4-dihydro-2H-pyrido[2,3-b][1,4,5]oxathiazepin-2-yl)methyl)thiophen-2-yl)-3-(1-ethyl-4-methyl-1H-benzo[d][1,2,3]triazol-5-yl)-2,2-dimethylpropanoic Acid], the EC50 was less than 1 nM. The result for `CC[C@H]1Cc2ccc(C(F)(F)F)cc2S(=O)(=O)N(Cc2cc([C@@H](c3ccc4c(nnn4CC)c3C)C(C)(C)C(=O)O)sc2C)C1` [Example 55, (S)-3-(4-(((S)-4-Ethyl-1,1-dioxido-8-(trifluoromethyl)-4,5-dihydrobenzo[f][1,2]thiazepin-2(3H)-yl)methyl)-5-methylthiophen-2-yl)-3-(1-ethyl-4-methyl-1H-benzo[d][1,2,3]triazol-5-yl)-2,2-dimethylpropanoic Acid] reads less than 1 nM; that for `CC[C@@H]1CN(Cc2cc([C@@H](c3ccc4c(nnn4CC)c3C)C(C)(C)C(=O)O)sc2Cl)S(=O)(=O)c2cnccc2O1` [Example 56, (S)-3-(5-Chloro-4-(((R)-4-ethyl-1,1-dioxido-3,4-dihydro-2H-pyrido[4,3-b][1,4,5]oxathiazepin-2-yl)methyl)thiophen-2-yl)-3-(1-ethyl-4-methyl-1H-benzo[d][1,2,3]triazol-5-yl)-2,2-dimethylpropanoic Acid], less than 1 nM.

These data come from patent US11117905B2, “Bisaryl heterocycles as NRF2 activators” (GLAXOSMITHKLINE INTELLECTUAL PROPERTY DEVELOPMENT LIMITED, priority 2016, dated 2021).
